This passage reports EC50 results from patent US10508086B2 (CANCER RESEARCH TECHNOLOGY LIMITED, priority 2014, dated 2019).

Molecules are shown by their SMILES.

Human Full Length PARG, sequence (Q86W56 whole entry): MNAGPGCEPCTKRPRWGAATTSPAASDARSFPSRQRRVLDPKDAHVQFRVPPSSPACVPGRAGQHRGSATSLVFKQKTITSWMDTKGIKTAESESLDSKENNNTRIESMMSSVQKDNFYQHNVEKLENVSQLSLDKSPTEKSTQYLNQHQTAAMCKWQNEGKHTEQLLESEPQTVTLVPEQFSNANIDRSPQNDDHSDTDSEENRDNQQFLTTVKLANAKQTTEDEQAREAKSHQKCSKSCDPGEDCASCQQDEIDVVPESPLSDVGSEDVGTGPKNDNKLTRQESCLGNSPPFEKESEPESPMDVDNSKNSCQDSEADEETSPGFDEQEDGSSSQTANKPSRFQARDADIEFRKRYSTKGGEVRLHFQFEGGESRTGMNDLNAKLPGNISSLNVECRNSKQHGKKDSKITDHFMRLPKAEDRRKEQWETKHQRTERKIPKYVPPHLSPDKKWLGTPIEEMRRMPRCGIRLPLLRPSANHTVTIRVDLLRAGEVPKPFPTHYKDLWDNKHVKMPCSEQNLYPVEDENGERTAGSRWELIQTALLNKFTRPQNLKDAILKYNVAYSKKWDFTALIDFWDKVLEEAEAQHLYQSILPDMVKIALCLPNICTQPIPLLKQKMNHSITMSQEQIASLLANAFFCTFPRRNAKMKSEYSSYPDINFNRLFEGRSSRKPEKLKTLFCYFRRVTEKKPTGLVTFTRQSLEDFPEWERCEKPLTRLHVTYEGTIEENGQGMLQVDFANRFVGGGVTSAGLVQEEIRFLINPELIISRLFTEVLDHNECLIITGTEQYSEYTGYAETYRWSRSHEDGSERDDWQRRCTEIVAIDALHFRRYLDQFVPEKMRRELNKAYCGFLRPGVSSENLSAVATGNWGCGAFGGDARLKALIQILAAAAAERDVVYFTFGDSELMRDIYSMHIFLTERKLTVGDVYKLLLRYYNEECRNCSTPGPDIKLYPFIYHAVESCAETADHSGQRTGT

The assay concerns the target Human Full Length PARG (Homo sapiens (Human), UniProt Q86W56). Nature of the assay: PARG in vitro enzyme assay (TR-FRET). As to conditions: read-out: PARG_EC50_ENZYME. The class given is biochemical. The method, then: PARG In vitro assays were conducted in a total volume of 15 ul in a standard 384 well format. 5 ul of Human Full Length PARG (Produced internally by Astra Zeneca), used at a final reaction concentration of […], was added to 5 ul of Ribosylated PARP substrate (also produced internally by Astra Zeneca) at final reaction concentration of 4.5 nM in assay buffer (50 mM Tris pH7.4, 0.1 mg/ml BSA, 3 mM EDTA, 0.4 mM EGTA, 1 mM DTT, 0.01% Tween 20, 50 mM KCl). The reaction was incubated at room temperature for 10 minutes and then 5 ul detection reagent was added. Detection Reagent consists of 42 nM MAb Anti-6HIS XL665 (CisBio: 61 HISXLB) and 2.25 nM Streptavidin Europium Cryptate (CisBio: 610SAKLB), both at 3× working stock concentrations (final concentrations of 14 nM and 0.75 nM respectively), in a detection buffer of 50 mM Tris pH7.4, BSA at 0.1 mg/ml and KF at 100 mM. Following incubation at room temperature for 60 minutes in the dark, TR-FRET signal was measured at Ex 340 and Em 665 and Em 620. A ratio was calculated as Em665/EM620×104 for each well and used to calculate percent inhibition for test compounds.
On the technique in general: Time-resolved FRET reads energy transfer from a long-lived donor to a nearby acceptor.
As for `Cn1c(=O)n(Cc2c(Cl)cccc2Cl)c2ccc(S(=O)(=O)NC3(C)CC3)cc21` [Example 1], the EC50 came out at 9.41 µM.

As to `Cn1c(=O)n(CC2CC2)c2ccc(S(=O)(=O)NC3(C)CC3)cc21` [Example 2], the EC50 stood at 5 µM.

Consider `Cn1c(=O)n(Cc2ccccc2)c2ccc(S(=O)(=O)NC3(C)CC3)cc21` [Example 3], for which the EC50 was 8.28 µM. The figure for `CC1(NS(=O)(=O)c2ccc3c(c2)n(-c2ccccc2)c(=O)n3CC2CC2)CC1` [Example 4] is 2.91 µM; for `Cn1c(=O)n(Cc2cccnc2)c2ccc(S(=O)(=O)NC3(C)CC3)cc21` [Example 5] it is 6.76 µM. With `Cn1c(=O)n(CC2CC2(F)F)c2ccc(S(=O)(=O)NC3(C)CC3)cc21` (centres unmarked) [Example 6] the figure was 8.32 µM; with `CC(C)Cn1c(=O)n(C)c2cc(S(=O)(=O)NC3(C)CC3)ccc21` [Example 7], 9.79 µM; with `CC1CC1Cn1c(=O)n(C)c2cc(S(=O)(=O)NC3(C)CC3)ccc21` (centres unmarked) [Example 8], 4.51 µM. Take `Cn1c(=O)n(CC2(C)CC2)c2ccc(S(=O)(=O)NC3(C)CC3)cc21` [Example 9]: the EC50 came out at 4.04 µM. The figure for `Cn1c(=O)n(CC2(C)COC2)c2ccc(S(=O)(=O)NC3(C)CC3)cc21` [Example 10] is 8.42 µM.

For the compound `Cn1c(=O)n(CC2CCC2)c2ccc(S(=O)(=O)NC3(C)CC3)cc21` [Example 11], the EC50 was 4.67 µM. Take `Cn1c(=O)n(CC2CCCCC2)c2ccc(S(=O)(=O)NC3(C)CC3)cc21` [Example 12]: the EC50 was 8.29 µM. The figure for `Cn1c(=O)n(Cc2ccncc2)c2ccc(S(=O)(=O)NC3(C)CC3)cc21` [Example 13] is 7.12 µM; for `Cn1c(=O)n(CC(C)(C)C)c2ccc(S(=O)(=O)NC3(C)CC3)cc21` [Example 15] it is 6.59 µM; for `Cn1c(=O)n(CC2CCCC2)c2ccc(S(=O)(=O)NC3(C)CC3)cc21` [Example 16] it is 3.39 µM. The figure for `C#CCn1c(=O)n(C)c2cc(S(=O)(=O)NC3(C)CC3)ccc21` [Example 17] is 4.78 µM; for `C=CCn1c(=O)n(C)c2cc(S(=O)(=O)NC3(C)CC3)ccc21` [Example 18] it is 7.56 µM; for `Cn1c(=O)n(CCC2CC2)c2ccc(S(=O)(=O)NC3(C)CC3)cc21` [Example 19] it is 5.36 µM. The figure for `Cc1ccc(Cn2c(=O)n(C)c3cc(S(=O)(=O)NC4(C)CC4)ccc32)o1` [Example 20] is 3.5 µM. Take `CC1(NS(=O)(=O)c2ccc3c(c2)N(C(=O)CN2CCNC2=O)CC3)CC1` [Example 21, N-(1-Methylcyclopropyl)-1-[2-(2-oxoimidazolidin-1-yl)acetyl]indoline-6-sulfonamide]: the EC50 worked out at 5.23 µM. With `CC(=O)OCCn1c(=O)n(C)c2cc(S(=O)(=O)NC3(C)CC3)ccc21` [Example 22] the figure was 9.18 µM.

For `Cn1ccc(Cn2c(=O)n(C)c3cc(S(=O)(=O)NC4(C)CC4)ccc32)n1` [Example 23], the EC50 came out at 8.83 µM. Regarding `CC(=O)n1c(=O)n(C)c2ccc(S(=O)(=O)NC3(C)CC3)cc21` [Example 24], the EC50 came to 2.8 µM. With `CN1CCN(CC(=O)N2CCc3ccc(S(=O)(=O)NC4(C)CC4)cc32)C1=O` [Example 25, N-(1-Methylcyclopropyl)-1-[2-(3-methyl-2-oxo-imidazolidin-1-yl)acetyl]indoline-6-sulfonamide] the figure was 8.92 µM. In the case of `Cn1c(=O)n(-c2ccsc2)c2cc(S(=O)(=O)NC3(C)CC3)ccc21` [Example 26], the EC50 was 6.99 µM. The figure for `Cn1c(=O)n(C(=O)c2ccccc2)c2cc(S(=O)(=O)NC3(C)CC3)ccc21` [Example 27] is 0.925 µM; for `Cn1c(=O)n(C(=O)C2CCCCC2)c2cc(S(=O)(=O)NC3(C)CC3)ccc21` [Example 28] it is 0.352 µM. With `Cc1ccc(C(=O)n2c(=O)n(C)c3ccc(S(=O)(=O)NC4(C)CC4)cc32)cc1` [Example 29], the EC50 is 4.46 µM.

With `Cc1cccc(C(=O)n2c(=O)n(C)c3ccc(S(=O)(=O)NC4(C)CC4)cc32)c1` [Example 30], the EC50 is 9.57 µM.
